Reference: ChEMBL document CHEMBL1201862, “PubChem BioAssay data set” (2004)
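Exposure lasted 48 hours, with cells grown in 96-well plates and compounds tested at five concentrations. The concentration for 50% growth inhibition is given as GI50.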 Active and inactive are the calls of the source. Rule as the data show it: active = GI50 up to about 1.1 µM and inactive = higher.

Legend:
Assay in all cases: inhibition of tumour cell growth, NCI panel, 48 h
OVCAR-8 = system: OVCAR-8
CCRF-CEM = system: CCRF-CEM
SW-620 = system: SW-620
CAKI-1 = system: CAKI-1
UACC-257 = system: UACC-257
ACHN = system: ACHN
HT-29 = system: HT-29
SF-295 = system: SF-295
HCT-15 = system: HCT-15
MDA-MB-231 = system: MDA-MB-231
HL-60 = system: HL-60
U-251 = system: U-251
NCI-H522 = system: NCI-H522
Malme-3M = system: Malme-3M
SK-MEL-2 = system: SK-MEL-2
SK-MEL-5 = system: SK-MEL-5
NCI/ADR-RES = system: NCI/ADR-RES
SF-268 = system: SF-268
TK-10 = system: TK-10
HOP-62 = system: HOP-62

| Structure (SMILES) | GI50 (OVCAR-8) | GI50 (CCRF-CEM) | GI50 (SW-620) | GI50 (CAKI-1) | GI50 (UACC-257) | GI50 (ACHN) | GI50 (HT-29) | GI50 (SF-295) | GI50 (HCT-15) | GI50 (MDA-MB-231) | GI50 (HL-60) | GI50 (U-251) | GI50 (NCI-H522) | GI50 (Malme-3M) | GI50 (SK-MEL-2) | GI50 (SK-MEL-5) | GI50 (NCI/ADR-RES) | GI50 (SF-268) | GI50 (TK-10) | GI50 (HOP-62) |
| --- | --- | --- | --- | --- | --- | --- | --- | --- | --- | --- | --- | --- | --- | --- | --- | --- | --- | --- | --- | --- |
| CC1(C)OCC(C2CCC3(C)C4=CCC5C(C)(C)C(O)CCC5(C)C4CCC23C)CC(O)C1O (stereo not given) | 17.5 µM (inactive) | 25.8 µM (inactive) | 17.8 µM (inactive) | 14 µM (inactive) | 12.2 µM (inactive) | 20.2 µM (inactive) | 18.2 µM (inactive) | 16.9 µM (inactive) | 15.8 µM | 18.1 µM (inactive) | 12.3 µM (inactive) | 15.4 µM (inactive) | 20 µM (inactive) | 15.6 µM (inactive) | 16.3 µM (inactive) | 15.1 µM (inactive) | 20.3 µM (inactive) | 18.3 µM (inactive) | 13.6 µM (inactive) |  |
| CCN(CC)CCOc1ccc(N2Cc3ccccc3C2=O)cc1 | > 10 µM (inactive) | > 10 µM (inactive) | > 10 µM (inactive) | > 10 µM (inactive) | > 10 µM (inactive) | > 10 µM (inactive) | > 10 µM (inactive) | > 10 µM (inactive) | > 10 µM | > 10 µM (inactive) | > 10 µM (inactive) | > 10 µM (inactive) | > 10 µM (inactive) | > 10 µM (inactive) | > 10 µM (inactive) | > 10 µM (inactive) | > 10 µM (inactive) | > 10 µM (inactive) | > 10 µM (inactive) | > 10 µM (inactive) |
| Cc1c(N2C(=O)C(Cl)C2c2ccc(Cl)cc2)c(=O)n(-c2ccccc2)n1C (stereo not given) | > 100 µM (inactive) | 23.1 µM (inactive) | 60.8 µM (inactive) | > 100 µM (inactive) | 14.2 µM (inactive) | 23.7 µM (inactive) | > 100 µM (inactive) | > 100 µM (inactive) |  | > 100 µM (inactive) | > 100 µM (inactive) | 35.3 µM (inactive) | 46.3 µM (inactive) | > 100 µM (inactive) | > 100 µM (inactive) | > 100 µM (inactive) | > 100 µM (inactive) | > 100 µM (inactive) | > 100 µM (inactive) | 42 µM (inactive) |
| COc1cccc([C@H]2C/C(=N\NC(=O)C(=O)N[C@@H](C)c3ccccc3)c3ccccc3N2)c1 | 6.41 µM (inactive) | 0.0188 µM (active) | 0.0339 µM (active) | 0.0354 µM (active) | 0.0361 µM (active) | 0.0381 µM (active) | > 10 µM (inactive) | < 0.01 µM (active) | < 0.01 µM | 0.0923 µM (active) | > 10 µM (inactive) | 7.67 µM (inactive) | 9.42 µM (inactive) | > 10 µM (inactive) | 3.69 µM (inactive) | < 0.01 µM (active) | 7.05 µM (inactive) | 7.05 µM (inactive) | > 10 µM (inactive) | 4.51 µM (inactive) |
| CCOc1ccccc1/N=N/C1C(=O)N(C(=O)CC(=O)Nc2ccccc2C)N=C1C (stereo not given) | 39 µM (inactive) | > 100 µM (inactive) | > 100 µM (inactive) | > 100 µM (inactive) |  | > 100 µM (inactive) | > 100 µM (inactive) | 15.9 µM (inactive) | 20.9 µM | 37.8 µM (inactive) | > 100 µM (inactive) | 19.4 µM (inactive) | 61.2 µM (inactive) | > 100 µM (inactive) | 38.4 µM (inactive) | > 100 µM (inactive) | 54.6 µM (inactive) | 19.6 µM (inactive) | 52.4 µM (inactive) | 19.9 µM (inactive) |
| CC1CNC(NS(=O)(=O)c2cc(C(=O)Nc3ccc(Cl)cc3)c(Cl)cc2S)=NN1 (stereo not given) | 25.4 µM (inactive) | 34.9 µM (inactive) | 34.1 µM (inactive) | 51.5 µM (inactive) | 54.2 µM (inactive) | 40 µM (inactive) | 36.3 µM (inactive) | 35.8 µM (inactive) | 20.8 µM | 37.8 µM (inactive) | > 100 µM (inactive) | 37.2 µM (inactive) | 28.2 µM (inactive) | 17.9 µM (inactive) | 28.9 µM (inactive) | 14.1 µM (inactive) | 36.6 µM (inactive) | 11.5 µM (inactive) | 81.7 µM (inactive) | 41.5 µM (inactive) |
| COc1cc(S(=O)(=O)Nc2nc(-c3ccc(N4C(=O)CSC4c4cccs4)cc3)cs2)ccc1Cl (stereo not given) | 33 µM (inactive) | 17.9 µM (inactive) | 40.8 µM (inactive) | > 100 µM (inactive) | 71 µM (inactive) | > 100 µM (inactive) | > 100 µM (inactive) | > 100 µM (inactive) | 22.8 µM | > 100 µM (inactive) | 23.2 µM (inactive) | > 100 µM (inactive) | 30.9 µM (inactive) | > 100 µM (inactive) | 57.5 µM (inactive) | > 100 µM (inactive) | > 100 µM (inactive) | 37.6 µM (inactive) | > 100 µM (inactive) | > 100 µM (inactive) |
| O=C(NC1(C(=O)NNc2nnc(-c3ccccc3)c(-c3ccccc3)n2)C(c2ccccc2)C(c2ccccc2)=NN1c1ccccc1)c1ccccc1 (stereo not given) | > 100 µM (inactive) |  | > 100 µM (inactive) | > 100 µM (inactive) | > 100 µM (inactive) | > 100 µM (inactive) | > 100 µM (inactive) | > 100 µM (inactive) | > 100 µM | > 100 µM (inactive) | 46.8 µM (inactive) | > 100 µM (inactive) | > 100 µM (inactive) | 64.1 µM (inactive) | > 100 µM (inactive) | > 100 µM (inactive) | > 100 µM (inactive) | > 100 µM (inactive) | > 100 µM (inactive) | > 100 µM (inactive) |
| CCOC(=O)/C=C(\C(=O)OCC)n1cc(Cl)c(=O)n(CC(=O)OCC)c1=O | 2.19 µM (inactive) | 5.09 µM (inactive) | 1.91 µM (inactive) | 2.25 µM (inactive) | 2.96 µM (inactive) | 1.63 µM (inactive) | 16.5 µM (inactive) | > 43.5 µM (inactive) | 3.17 µM | 16 µM (inactive) | 2.81 µM (inactive) | 15.6 µM (inactive) | 0.78 µM (active) | 1.57 µM (inactive) | 16.2 µM (inactive) | 15.7 µM (inactive) | 27.6 µM (inactive) | 17.7 µM (inactive) | 1.89 µM (inactive) | 18 µM (inactive) |
| O=C1NC(N2CCCC(CO)C2)=N/C1=C\c1ccc(Cl)cc1 (stereo not given) | > 100 µM (inactive) | > 100 µM (inactive) | > 100 µM (inactive) | > 100 µM (inactive) | > 100 µM (inactive) | > 100 µM (inactive) | > 100 µM (inactive) | > 100 µM (inactive) | 77.6 µM | > 100 µM (inactive) | > 100 µM (inactive) | > 100 µM (inactive) | > 100 µM (inactive) | > 100 µM (inactive) | > 100 µM (inactive) | > 100 µM (inactive) | > 100 µM (inactive) | > 100 µM (inactive) | > 100 µM (inactive) | > 100 µM (inactive) |
| NC1=NCN(C2OC(CO)C(O)C2O)C(=O)N1 (stereo not given) | 415 µM (inactive) | 7.19 µM (inactive) | 16.7 µM (inactive) | 69 µM (inactive) | 49 µM (inactive) | 0.802 µM (active) | 42.3 µM (inactive) | 43.4 µM (inactive) | 4.5 µM | 38.5 µM (inactive) | 0.838 µM (active) | 27.9 µM (inactive) | 5.26 µM (inactive) | 10.9 µM (inactive) | 0.977 µM (active) | 42 µM (inactive) | 705 µM (inactive) | 15.1 µM (inactive) | 11.4 µM (inactive) | 152 µM (inactive) |
| CN(C)c1ccc(-c2c(C#N)c(S)n(NS(=O)(=O)c3ccccc3)c(=O)c2C#N)cc1 | 16.6 µM (inactive) | 5.93 µM (inactive) | 38.9 µM (inactive) | 23.8 µM (inactive) | 45.8 µM (inactive) | 26.8 µM (inactive) |  | 31 µM (inactive) | 20.5 µM | 22.3 µM (inactive) | 15.7 µM (inactive) | 24.1 µM (inactive) | 14.7 µM (inactive) | 26.5 µM (inactive) | 35.9 µM (inactive) | 19.8 µM (inactive) | 19.3 µM (inactive) |  | 19 µM (inactive) |  |
| COc1ccc(OC/C(N)=N/NC(=O)c2ccncc2)cc1 | > 100 µM (inactive) | > 100 µM (inactive) | > 100 µM (inactive) | > 100 µM (inactive) | > 100 µM (inactive) | > 100 µM (inactive) | > 100 µM (inactive) | > 100 µM (inactive) | > 100 µM | > 100 µM (inactive) | > 100 µM (inactive) | > 100 µM (inactive) | > 100 µM (inactive) | > 100 µM (inactive) | > 100 µM (inactive) |  | > 100 µM (inactive) | > 100 µM (inactive) | > 100 µM (inactive) | > 100 µM (inactive) |
| Cn1ccc(C(=O)NCCCCCNC(=O)c2ccn(C)c(=O)c2O)c(O)c1=O | > 100 µM (inactive) | > 100 µM (inactive) | > 100 µM (inactive) | > 100 µM (inactive) | > 100 µM (inactive) | > 100 µM (inactive) | > 100 µM (inactive) |  | > 100 µM | > 100 µM (inactive) | > 100 µM (inactive) | > 100 µM (inactive) | > 100 µM (inactive) | > 100 µM (inactive) | > 100 µM (inactive) | > 100 µM (inactive) | > 100 µM (inactive) | > 100 µM (inactive) | > 100 µM (inactive) |  |
